Values of other authors as cited in patent US20040034086A1, “Combination of an allosteric inhibitor of matrix metalloproteinase-13 with celecoxib or valdecoxib” (priority 2002, published 2004).

## Cc1onc(-c2ccccc2)c1-c1ccc(S(N)(=O)=O)cc1 [valdecoxib, 4-(5-methyl-3-phenyl-4-isoxazolyl)-benzenesulfonamide]
Combined analysis of various clinical studies
  Tolerability in clinical studies: well tolerated
Compared with conventional NSAIDs such as ibuprofen, diclofenac and naproxen
  Overall upper gastrointestinal safety profile (ulcers, perforations, obstructions and GI bleeds): significantly better than the conventional NSAIDs studied
